According to publication PMC3729231 (Bioorganic & medicinal chemistry letters, 2012):

Tests used:
29 other GPCRs = assay: PDSP GPCR binding assay panel: other GPCRs; settings: listed as ML221
[1] = aqueous acetonitrile; data not shown
APJ = biological target: T1, APJ (Homo sapiens, UniProt P35414); assay: cell-based
T1 sequence (P35414 1-380): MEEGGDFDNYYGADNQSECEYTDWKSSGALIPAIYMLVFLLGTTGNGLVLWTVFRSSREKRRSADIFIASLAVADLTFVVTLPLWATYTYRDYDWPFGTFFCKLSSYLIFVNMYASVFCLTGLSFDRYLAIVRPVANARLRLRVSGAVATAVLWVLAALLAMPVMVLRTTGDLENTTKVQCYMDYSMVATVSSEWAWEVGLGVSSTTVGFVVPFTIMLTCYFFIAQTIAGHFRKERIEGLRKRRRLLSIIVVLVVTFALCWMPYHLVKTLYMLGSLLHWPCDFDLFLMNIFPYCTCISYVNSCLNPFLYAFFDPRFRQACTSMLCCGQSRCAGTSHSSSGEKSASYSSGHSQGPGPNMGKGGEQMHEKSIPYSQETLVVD

O=C(Oc1coc(CSc2ncccn2)cc1=O)c1ccc([N+](=O)[O-])cc1 [Entry 6, 4-oxo-6-((pyrimidin-2-ylthio)methyl)-4H-pyran-3-yl 4-nitrobenzoate]
binding activity against other GPCRs (in words) (29 other GPCRs): no significant binding activity

Cc1ccnc(SCc2cc(=O)c(OC(=O)c3ccc(Cl)c([N+](=O)[O-])c3)co2)n1 [Entry 29]
hydrolytic stability of the ester bond (in words) [1]: readily hydrolyzed

Cc1ccnc(SCc2cc(=O)c(NC(=O)c3ccc([N+](=O)[O-])cc3)co2)n1 [Entry 67]
IC50 (APJ): 12.8 ± 0.35 µM
